Series [1] in a line: Identification of metabolite in blood of male rats after oral administration (LC-MS). It counts as in vivo, rat. Particulars: male rats (n=5), in 0.5% methylcellulose and 0.1% polysorbate 80, blood at 0.25-4 hours. As to the method:
Butaneamide, 2-[(N,N-dimethylaminoacetyl)amino]-N-[3-[[[(1,1-dimethylethyl)amino]carbonyl](3-methylbutyl)amino]-2-hydroxy-1-(phenylmethyl)propyl]-3,3-dimethyl-, [1S-[1R*(R*), 2S*]]-, as prepared in Example 1 herein, is administered to male rats (n=5) orally in water containing 0.5% methylcellulose and 0.1% polysorbate 80 in a total volume of 5 to 7 mL per kilogram. Blood samples are collected at 0.25, 0.50, 1, 2 and 4 hours. The samples for each time-point are pooled and extracted onto a 100 mg C18 solid phase extraction column (SPEC) after prior treatment with methanol to denature plasma proteins. The extract is purified by washing the SPEC with water and collected after the addition of 1% formic acid in methanol to the SPEC. Concentration of the extract is achieved by evaporation and resolubilization in a small volume of water:acetonitrile (3:1, v/v). The resolubilized extract is filtered through a 0.2μ filter and injected onto a liquid chromatograph coupled to a mass spectrometer, using a VG Trio 2 Mass Spectrometer, by means of a thermospray interface. The chromatographic separation is produced by use of a 10 cm (2×5 cm) YMC Basic column with a mobile phase of water:acetonitrile:pyridine:formic acid (545:440:10:5, by volume).

Another series deals with CEM cells. Format: cell-based. Details: unit not given beside the values. As to the method: The HIV inhibition assay method of acutely infected cells is an automated tetrazolium based calorimetric assay essentially that reported by Pauwles et al, J. Virol. Methods 20, 309-321 (1988). Assays were performed in 96-well tissue culture plates. CEM cells, a CD4+ cell line, were grown in RPMI-1640 medium (Gibco) supplemented with a 10% fetal calf serum and were then treated with polybrene (2 μg/ml). An 80 μl volume of medium containing 1×10^4 cells was dispensed into each well of the tissue culture plate. To each well was added a 100 μl volume of test compound dissolved in tissue culture medium (or medium without test compound as a control) to achieve the desired final concentration and the cells were incubated at 37° C. for 1 hour. A frozen culture of HIV-1 was diluted in culture medium to a concentration of 5×104 TCID50 per ml (TCID50=the dose of virus that infects 50% of cells in tissue culture), and a 20 μL volume of the virus sample (containing 1000 TCID50 of virus) was added to wells containing test compound and to wells containing only medium (infected control cells). Several wells received culture medium without virus (uninfected control cells). Likewise, the intrinsic toxicity of the test compound was determined by adding medium without virus to several wells containing test compound. In summary, the tissue culture plates contained the following experiments: In experiments 2 and 4 the final concentrations of test compounds were 1, 10, 100 and 500 μg/ml. Either azidothymidine (AZT) or dideoxyinosine (ddI) was included as a positive drug control. […] DMSO was added to all control wells at an appropriate concentration. Following the addition of virus, cells were incubated at 37° C. in a humidified, 5% CO2 atmosphere for 7 days. Test compounds could be added on days 0, 2 and 5 if desired. […] The absorbance at 590 nm was determined for each sample using a Molecular Devices microplate reader. Absorbance values for each set of wells is compared to assess viral control infection, uninfected control cell response as well as test compound by cytotoxicity and antiviral efficacy.

Another series concerns HIV-1 in CEM cells. Briefly: CEM cell assay, HIV inhibition in acutely infected cells (MTT). Format: cell-based. Particulars: Human immunodeficiency virus 1, CCRF-CEM, 168 h; HIV-1 infected CEM cells, 7 days. As to the method: The effectiveness of selected compounds of the present invention were determined in the above-described enzyme assay and in a CEM cell assay. The HIV inhibition assay method of acutely infected cells is an automated tetrazolium based calorimetric assay essentially that reported by Pauwles et al, J. Virol. Methods 20, 309-321 (1988). Assays were performed in 96-well tissue culture plates. CEM cells, a CD4+ cell line, were grown in RPMI-1640 medium (Gibco) supplemented with a 10% fetal calf serum and were then treated with polybrene (2 μg/ml). An 80 μl volume of medium containing 1×10^4 cells was dispensed into each well of the tissue culture plate. To each well was added a 100 μl volume of test compound dissolved in tissue culture medium (or medium without test compound as a control) to achieve the desired final concentration and the cells were incubated at 37° C. for 1 hour. A frozen culture of HIV-1 was diluted in culture medium to a concentration of […] (TCID50=the dose of virus that infects 50% of cells in tissue culture), and a 20 μL volume of the virus sample (containing 1000 TCID50 of virus) was added to wells containing test compound and to wells containing only medium (infected control cells). Several wells received culture medium without virus (uninfected control cells). Likewise, the intrinsic toxicity of the test compound was determined by adding medium without virus to several wells containing test compound. In summary, the tissue culture plates contained the following experiments: In experiments 2 and 4 the final concentrations of test compounds were 1, 10, 100 and 500 μg/ml. Either azidothymidine (AZT) or dideoxyinosine (ddI) was included as a positive drug control. […] DMSO was added to all control wells at an appropriate concentration. Following the addition of virus, cells were incubated at 37° C. in a humidified, 5% CO2 atmosphere for 7 days. Test compounds could be added on days 0, 2 and 5 if desired. On day 7, post-infection, the cells in each well were resuspended and a 100 μl sample of each cell suspension was removed for assay. A 20 μL volume of a 5 mg/ml solution of 3-(4,5-dimethylthiazol-2-yl)-2,5-diphenyltetrazolium bromide (MTT) was added to each 100 μL cell suspension, and the cells were incubated for 4 hours at […] in a 5% CO2 environment. […] To each sample was added 100 μl of 10% sodium dodecylsulfate in 0.01N HCl to lyse the cells, and samples were incubated overnight. The absorbance at 590 nm was determined for each sample using a Molecular Devices microplate reader. Absorbance values for each set of wells is compared to assess viral control infection, uninfected control cell response as well as test compound by cytotoxicity and antiviral efficacy.

Another series has as its target HIV protease (Human immunodeficiency virus type 1 group M subtype B, UniProt P04585). Nature of the series: HIV protease enzyme assay (fluorescent substrate 2-aminobenzoyl-Ile-Nle-Phe(p-NO2)-Gln-ArgNH2). It counts as biochemical. The following applies: concentration at which the inhibitor reduces enzyme activity by 50%; enzyme about 12.3 nanomolar, substrate about 80 μM, pH 6.4. The text has this:
The compounds of the present invention are advantageously effective HIV protease inhibitors. Utilizing an enzyme assay as described below, the compounds set forth in the examples herein disclosed inhibited the HIV enzyme. The preferred compounds of the present invention and their calculated IC50 (the concentration at which the inhibitor compound reduces enzyme activity by 50%) values are shown in Table 2.
The enzyme method is as follows. The substrate is 2-aminobenzoyl-Ile-Nle-Phe(p-NO2)-Gln-ArgNH2. The positive control is MVT-101 (Miller, M. et al, Science, 246, 1149 (1989)). The assay buffer is 20 mM sodium phosphate, pH 6.4, 20% glycerol, 1 mM EDTA, 1 mM DTT and 0.1% CHAPS. The substrate is dissolved in DMSO, then diluted 10 fold in assay buffer. Final substrate concentration in the assay is about 80 μM. HIV protease is diluted in the assay buffer to a final enzyme concentration of about 12.3 nanomolar, based on a molecular weight of 10,780.
The final concentration of DMSO is about 14% and the final concentration of glycerol is about 18%. The test compound is dissolved in DMSO and diluted in DMSO to ten times (10×) the test concentration. Ten microliters (10 μL) of the enzyme preparation is added, the materials mixed and then the mixture is incubated at ambient temperature for 15 minutes. The enzyme reaction is initiated by the addition of 40 μL of substrate. The increase in fluorescence is monitored at 4 time points (0, 8, 16 and 24 minutes) at ambient temperature. Each assay is carried out in duplicate wells.

Usually EC50 stands for the concentration giving half of the maximal effect. Broadly, the IC50 is the concentration at which inhibition is half-maximal.

In the case of `CC(C)CCN(C[C@@H](O)[C@H](Cc1ccccc1)NC(=O)[C@@H](NC(=O)CN(C)C)C(C)(C)C)C(=O)NC(C)(C)C` [Example 1, Butaneamide, 2-[(N,N-dimethylaminoacetyl)amino]-N-[3-[[[(1,1-dimethylethyl)amino]carbonyl](3-methylbutyl)amino]-2-hydroxy-1-(phenylmethyl)propyl]-3,3-dimethyl-,[1S-[1R*(R*), 2S*]]-], the “metabolite found in blood extract compared with synthesized metabolite standard” value in series [1] was “corresponding spectra and chromatogram from a standard of the synthesized metabolite can be favorably compared”. In addition, the TD50 with CEM cells is recorded as 45,000. In the series with HIV-1 in CEM cells, this molecule came in with an EC50 of 58 nM. This molecule also registered a half-inhibitory concentration (IC50) at HIV protease of 10 nM.

Regarding `CNCC(=O)N[C@H](C(=O)N[C@@H](Cc1ccccc1)[C@H](O)CN(CCC(C)C)C(=O)NC(C)(C)C)C(C)(C)C` [Example 2, (2R, 3S)-3(N-methylaminoacetyl-L-tert-butylglycinyl) amino-2-hydroxy-4-phenyl-1-[N-(3-methylbutyl)-N-[(1,1-dimethylethyl)amino]carbonyl]aminobutane], the TD50 with CEM cells is on record as 45,000. The midpoint of the response in the series on HIV-1 in CEM cells, the EC50, lay at 22 nM. Moreover, the IC50 against HIV protease is 6 nM.

Turning to `CC[C@H](C)[C@H](NC(=O)CNC)C(=O)N[C@@H](Cc1ccccc1)[C@H](O)CN(CCC(C)C)C(=O)NC(C)(C)C` [Example 4, (2R,3S)-3-(N-methylaminoacetyl-L-isoleucinyl) amido-1-[N-isoamyl-N-(tert-butylcarbamoyl)]amino-4-phenyl-2-butanol], the TD50 in the series on CEM cells is 55,000. This molecule showed a concentration giving a half-maximal response (EC50) in the series on HIV-1 in CEM cells of 91 nM. At HIV protease, this molecule showed an IC50 of 13 nM.

The values are drawn from patent publication US5750648A, “Retroviral protease inhibitors and combinations thereof” (G.D. Searle & Co., priority 1994, dated 1998).
